Values of other authors as cited in US20080167477A1, “NOVEL POLYMORPHIC FORMS OF […] AND PROCESS FOR PREPARING THE SAME” (MATRIX LABORATORIES LIMITED, priority 2007, published 2008).

Conditions: compared to the free base of carvedilol; disclosed in WO 2004/002419

In the case of `COc1ccccc1OCCNCC(O)COc1cccc2[nH]c3ccccc3c12.O=P(O)(O)O` (stereo not shown) [carvedilol dihydrogen phosphate], the solubility is given as “higher solubility when compared to the free base of carvedilol”.
